# Test results from patent publication US7226947B1, “Use of creatine as a fat substitute” (AlzChem Trostberg GmbH, priority 1999, dated 2007).
# Tested on: growing hens
# Experiment: Effect of addition of creatine in the feed for growing hens
# Assay type: in vivo
# Details: 0.2% creatine (0.2 g/kg) added to air-dried feed, growing period of 41 days
# From the text: The effect of addition of creatine in the feed for growing hens was studied. It was found here that by adding 0.2% creatine […] to the air-dried feed for a growing period of 41 days, an increase in the final weight of 4% compared with previous feeding methods (without creatine addition) was achieved. […] The feed consumption decreased here by about 2–3% in comparison with previous feeding methods.
structure (smiles),measurement,value
CN(CC(=O)O)C(=N)N [creatine],decrease in feed consumption in comparison with previous feeding methods,2–3%
same,increase in the final weight compared with previous feeding methods (without creatine addition),4%
same,meat quality,improved quality
same,nature of the increase in weight (meat vs fat; lean body mass index),"only by increase in meat, but not by increase in fat"
